This passage reports inhibition results from ChEMBL document CHEMBL5108045, “Identification and Utilization of a Chemical Probe to Interrogate the Roles of PIKfyve in the Lifecycle of β-Coronaviruses” (J Med Chem, 2022).

Calls of active or inactive are those of the source. The rule behind the calls is not given here.

For test [1], the system named is HEK-293T. Briefly: (§1) Inhibition of His-6 tagged SARS-CoV-2 spike protein uptake in ACE2 overexpressing HEK293T cells at 1 uM incubated for 30 mins by DAPI staining based confocal microscopy analysis. In kind it is functional. The following applies: Homo sapiens.
The nature of test [2]: as §1. It is filed as functional. The following applies: Homo sapiens, HEK-293T, 0.5 h.

As a reminder, the inhibition is the change of the read-out against control, counted positive when it falls. For the compound `Cc1cccc(/C=N/Nc2cc(N3CCOCC3)nc(OCCc3ccccn3)n2)c1`, the inhibition entry in test [1] was “Active”.

As for `CN(C)CC#Cc1ccc2[nH]c3c(c2c1)-c1nc(N)ncc1CCC3`, in test [1], the inhibition entry is “Active”.

Turning to `Nc1ncc2c(n1)-c1c([nH]c3ccc(-c4ccc(F)cc4)cc13)CCC2`, in test [1], the inhibition result is “Active”.

Take `CC(C)(O)C#Cc1ccc2[nH]c3c(c2c1)-c1nc(N)ncc1CCC3`: in test [2], the inhibition at 1 µM is less than 10%.
